Measured values from US9597407B2, “Targeted antimicrobial moieties” (C3 Jian, Inc., priority 2009, dated 2017).
“Also recorded” adds a separate entry of the source.

Test system: bacteria
Assay: Binding of targeting peptides to microorganisms (Table 3)
Conditions: preferably 1x PBS
[1] = microorganism the targeting peptide binds, binding in aqueous buffers that varied with peptide solubility
[2] = microorganism bound by the targeting peptide, binding in aqueous buffers chosen by peptide solubility

Substance	Target(s) [1]	Target(s) [2]
PF-038 (MAYKDEGKETKFAVKGYKD; Peptide with targeting and/or antimicrobial activity)	M. luteus	–
PF-039 (MLEEKNKSL; Peptide with targeting and/or antimicrobial activity)	P. mirabilis; also recorded: C. jeikeium	–
PF-044 (KLKKYIHKPD; Peptide with targeting and/or antimicrobial activity)	S. epidermidis and M. luteus and MRSA and C. jeikeium	–
PF-047 (NQEPSLQQDKEQKDNKG; Peptide with targeting and/or antimicrobial activity)	S. mutans	–
PF-050 (SYYLKRREEKGK; Peptide with targeting and/or antimicrobial activity)	S. epidermidis; also recorded: M. luteus; also recorded: E. coli; also recorded: C. jeikeium	–
PF-054 (VSISRFIGGGHVFNGNNKRNL; Peptide with targeting and/or antimicrobial activity)	S. epidermidis; also recorded: E. coli	–
PF-055 (GHVFNGNNKRNL; Peptide with targeting and/or antimicrobial activity)	S. mutans	–
PF-060 (HSSHL; Peptide with targeting and/or antimicrobial activity)	E. coli; also recorded: C. albicans; also recorded: C. jeikeium	–
PF-062 (MKKKRINNDILGRMIYSSSIDKRNLYNLKYYE; Peptide with targeting and/or antimicrobial activity)	S. epidermidis and M. luteus and E. coli and P. aeruginosa and MRSA and S. pneumoniae and E. faecalis and C. jeikeium	–
PF-097 (QPTQGEQGTRPRRPTPMRGLLI; Peptide with targeting and/or antimicrobial activity)	–	C. jeikeium
PF-101 (DPVPERQEQACACHRTAKPGK; Peptide with targeting and/or antimicrobial activity)	–	S. mutans
PF-104 (ERTAVNDLWI; Peptide with targeting and/or antimicrobial activity)	–	MRSA and C. jeikeium
PF-130 (LQRSDEESMPRRHEKYS; Peptide with targeting and/or antimicrobial activity)	–	E. faecalis; also recorded: C. jeikeium; also recorded: C. jejuni
PF-131 (RRAAARTKGNRR; Peptide with targeting and/or antimicrobial activity)	–	S. epidermidis and E. coli and MRSA and C. jeikeium
PF-132 (RPGDGAAEQGRSR; Peptide with targeting and/or antimicrobial activity)	–	S. epidermidis; also recorded: C. jeikeium
PF-134 (GKAMKRQDCSAL; Peptide with targeting and/or antimicrobial activity)	–	S. epidermidis; also recorded: C. jeikeium
PF-138 (AVHHSLLFR; Peptide with targeting and/or antimicrobial activity)	–	S. epidermidis and M. luteus and P. mirabilis and E. coli and C. albicans and MRSA and C. jeikeium and C. jejuni
PF-141 (VVRRFQGM; Peptide with targeting and/or antimicrobial activity)	–	S. epidermidis and M. luteus and C. albicans and MRSA and C. jeikeium
PF-142 (GIDRGCQAAR; Peptide with targeting and/or antimicrobial activity)	–	S. mutans
PF-146 (GCGKRRIITKSASRDTR; Peptide with targeting and/or antimicrobial activity)	–	S. epidermidis and M. luteus and P. aeruginosa and C. albicans and MRSA and C. jeikeium
PF-147 (RRPRRRRSGHGQSASAA; Peptide with targeting and/or antimicrobial activity)	–	S. epidermidis and M. luteus and MRSA
PF-150 (EIQAKGTG; Peptide with targeting and/or antimicrobial activity)	–	S. epidermidis and MRSA
PF-151 (EEYPARVPLSGEDVTEARRH; Peptide with targeting and/or antimicrobial activity)	–	S. epidermidis and MRSA and E. faecalis and C. jeikeium
PF-152 (VGYFIWKDSHSRKG; Peptide with targeting and/or antimicrobial activity)	–	S. epidermidis and C. albicans and MRSA and E. faecalis and C. jeikeium
PF-154 (GIKKSKHPSTDDYVVKTTIDSL; Peptide with targeting and/or antimicrobial activity)	–	S. mutans
PF-155 (GRYGDDSKERQGRAQ; Peptide with targeting and/or antimicrobial activity)	–	C. jeikeium
PF-158 (VRLESRPADLPE; Peptide with targeting and/or antimicrobial activity)	–	S. epidermidis

Substance	Target(s) [1]	Target(s) [2]
PF-159 (TMAFVEKAQLRVPVGDDLPV; Peptide with targeting and/or antimicrobial activity)	–	S. epidermidis
PF-160 (SFHASLTKNEKPIKSTG; Peptide with targeting and/or antimicrobial activity)	–	S. epidermidis
PF-161 (RGRALASTATTRPARRRR; Peptide with targeting and/or antimicrobial activity)	–	S. epidermidis; also recorded: M. luteus; also recorded: E. coli; also recorded: C. jejuni
PF-162 (GIRRLHSVENLNREISHRMAGLR; Peptide with targeting and/or antimicrobial activity)	–	S. epidermidis and MRSA
PF-163 (TSWLRAAERQEIGEPTKTFGEKTTSL; Peptide with targeting and/or antimicrobial activity)	–	S. epidermidis
PF-165 (GPVSVVASLRRGTTVQRHSQNNHNKGKP; Peptide with targeting and/or antimicrobial activity)	–	MRSA and C. jejuni
PF-166 (SKAVSRKRSI; Peptide with targeting and/or antimicrobial activity)	–	E. coli; also recorded: C. jeikeium
PF-169 (APGSAADSPRSRADD; Peptide with targeting and/or antimicrobial activity)	–	S. epidermidis; also recorded: E. coli; also recorded: C. albicans; also recorded: E. faecalis; also recorded: C. jeikeium
PF-172 (LTGVRRPWRAPWAGTSGWALR; Peptide with targeting and/or antimicrobial activity)	–	S. epidermidis and M. luteus and E. coli and P. aeruginosa and MRSA and E. faecalis and C. jejuni
PF-174 (RGGDSPARRRPGLAGPGGPG; Peptide with targeting and/or antimicrobial activity)	–	S. epidermidis; also recorded: P. aeruginosa; also recorded: C. jeikeium
PF-177 (VTSEPGIAHDIRLLPRAAAFR; Peptide with targeting and/or antimicrobial activity)	–	M. luteus and MRSA and E. faecalis and C. jeikeium
PF-181 (GIAPRRNEWGAVGGR; Peptide with targeting and/or antimicrobial activity)	–	S. epidermidis and M. luteus and E. coli and MRSA and E. faecalis and C. jeikeium
PF-182 (LPATRDKTRVPASVAGAP; Peptide with targeting and/or antimicrobial activity)	–	S. epidermidis; also recorded: M. luteus; also recorded: E. coli; also recorded: E. faecalis; also recorded: C. jeikeium
PF-183 (KPGISVENRQ; Peptide with targeting and/or antimicrobial activity)	–	S. epidermidis and M. luteus and E. coli and C. albicans and MRSA and E. faecalis and C. jeikeium
PF-184 (LIADRHIRA; Peptide with targeting and/or antimicrobial activity)	–	S. epidermidis and M. luteus and E. coli and P. aeruginosa and C. albicans and MRSA and C. jeikeium
PF-185 (RPAQARQGPGGLIADRHIRA; Peptide with targeting and/or antimicrobial activity)	–	E. coli; also recorded: P. aeruginosa
PF-187 (EIQKIAKGVSGQVYGPSRQITISKKR; Peptide with targeting and/or antimicrobial activity)	–	S. epidermidis and M. luteus and E. coli and MRSA
PF-189 (GNLTRSREAARATQ; Peptide with targeting and/or antimicrobial activity)	–	S. epidermidis and M. luteus and C. albicans and MRSA and E. faecalis and C. jejuni
PF-193 (PPHCPPGHAKKGWC; Peptide with targeting and/or antimicrobial activity)	–	S. epidermidis and M. luteus and E. coli and MRSA and E. faecalis and C. jejuni
PF-194 (MKGNKLATAHEQPVKNSAPPL; Peptide with targeting and/or antimicrobial activity)	–	C. jeikeium
PF-195 (EMAEGSADDRLRKTPRDC; Peptide with targeting and/or antimicrobial activity)	–	S. epidermidis; also recorded: M. luteus; also recorded: E. faecalis; also recorded: C. jeikeium
PF-197 (CNALLRRGHPPSAL; Peptide with targeting and/or antimicrobial activity)	–	S. epidermidis; also recorded: M. luteus; also recorded: C. albicans; also recorded: E. faecalis; also recorded: C. jejuni
PF-200 (GIELKSLIMAQIERWRQA; Peptide with targeting and/or antimicrobial activity)	–	S. epidermidis and M. luteus and MRSA and E. faecalis and C. jeikeium
PF-201 (GCRPASLSDADPDGR; Peptide with targeting and/or antimicrobial activity)	–	S. epidermidis; also recorded: M. luteus; also recorded: E. coli; also recorded: C. albicans; also recorded: E. faecalis; also recorded: C. jeikeium; also recorded: C. jejuni
PF-202 (ALNRASLRLALGE; Peptide with targeting and/or antimicrobial activity)	–	S. epidermidis and M. luteus and E. coli and MRSA and E. faecalis and C. jeikeium and C. jejuni
PF-206 (KLRSASKKSLQEKSCGIMPEKPAG; Peptide with targeting and/or antimicrobial activity)	–	M. luteus; also recorded: C. albicans; also recorded: C. jeikeium; also recorded: C. jejuni
